According to ChEMBL document CHEMBL4477224, “Antidiabetic effect, antioxidant activity, and toxicity of 3',4'-Di-O-acetyl-cis-khellactone in Streptozotocin-induced diabetic rats” (Bioorg Med Chem Lett, 2016):
Active and inactive are the calls of the source. The rule behind the calls is not given here.

Assays:
[1] = Mutagenicity in Salmonella typhimurium TA98 assessed as mutagenic index at 17.30 uM/plate after 48 hrs in absence of S9 fraction by Ames test relative to control; type: toxicity; conditions: salmonella enterica subsp. enterica serovar typhimurium, s9, 48 h, 17.3 µM
[2] = Mutagenicity in Salmonella typhimurium TA100 assessed as mutagenic index at 100 uM/plate after 48 hrs in presence of S9 fraction by Ames test relative to control; type: toxicity, subcellular; conditions: salmonella enterica subsp. enterica serovar typhimurium, s9, 48 h
[3] = Mutagenicity in Salmonella typhimurium TA100 assessed as mutagenic index at 50 uM/plate after 48 hrs in absence of S9 fraction by Ames test relative to control; type: toxicity; conditions: salmonella enterica subsp. enterica serovar typhimurium, s9, 48 h
Rattus norvegicus [4] = experiment: Antidiabetic activity in STZ-induced diabetic Wistar rat assessed as increase in body weight at 15 mg/kg, po administered for 15 days post STZ challenge measured on day 21; type: functional
Rattus norvegicus [5] = experiment: Antidiabetic activity in STZ-induced diabetic Wistar rat blood assessed as HDL level at 15 mg/kg, po administered for 15 days (reference value: 36.31 +/- 0.51 mg/dl); type: functional
[6] = Acute toxicity in BALB/c mouse assessed as increase in body weight at 2000 mg/kg, ig after 14 days (reference value: 13.3 +/- 0.3g); type: organism-based; conditions: in vivo, po, 336 h
Rattus norvegicus [7] = experiment: Antidiabetic activity in STZ-induced diabetic Wistar rat blood assessed as urea level at 15 mg/kg, po administered for 15 days (reference value: 62.98 +/- 6.21 mg/dl); type: functional
Rattus norvegicus [8] = experiment: Antidiabetic activity in STZ-induced diabetic Wistar rat assessed as change in fasting blood glucose level at 15 mg/kg, po administered for 7 days post STZ challenge measured on day 14 by glucometry (reference value: 72.90 +/- 5.2 mg/dl); type: functional
[9] = Mutagenicity in Salmonella typhimurium TA100 assessed as mutagenic index at 100 uM/plate after 48 hrs in absence of S9 fraction by Ames test relative to control; type: toxicity; conditions: salmonella enterica subsp. enterica serovar typhimurium, s9, 48 h
[10] = Mutagenicity in Salmonella typhimurium TA100 assessed as mutagenic index at 8.65 uM/plate after 48 hrs in absence of S9 fraction by Ames test relative to control; type: toxicity; conditions: salmonella enterica subsp. enterica serovar typhimurium, s9, 48 h
[11] = Mutagenicity in Salmonella typhimurium TA100 assessed as mutagenic index at 34.60 uM/plate after 48 hrs in presence of S9 fraction by Ames test relative to control; type: toxicity, subcellular; conditions: salmonella enterica subsp. enterica serovar typhimurium, s9, 48 h, 34.6 µM
[12] = Mutagenicity in Salmonella typhimurium TA102 assessed as mutagenic index at 8.65 uM/plate after 48 hrs in absence of S9 fraction by Ames test relative to control; type: toxicity; conditions: salmonella enterica subsp. enterica serovar typhimurium, s9, 48 h
[13] = Mutagenicity in Salmonella typhimurium TA98 assessed as mutagenic index at 8.65 uM/plate after 48 hrs in absence of S9 fraction by Ames test relative to control; type: toxicity; conditions: salmonella enterica subsp. enterica serovar typhimurium, s9, 48 h
Rattus norvegicus [14] = experiment: Antidiabetic activity in STZ-induced diabetic Wistar rat assessed as change in fasting blood glucose level at 15 mg/kg, po administered on day 7 post STZ challenge measured immediately post dosage by glucometry (reference value: 72.90 +/- 5.2 mg/dl); type: functional
Rattus norvegicus [15] = experiment: Antidiabetic activity in STZ-induced diabetic Wistar rat assessed as effect on islets of langerhans morphology at 15 mg/kg, po administered for 15 days by fluorescence microscopy; type: functional, organism-based
[16] = Mutagenicity in Salmonella typhimurium TA102 assessed as mutagenic index at 8.65 uM/plate after 48 hrs in presence of S9 fraction by Ames test relative to control; type: toxicity, subcellular; conditions: salmonella enterica subsp. enterica serovar typhimurium, s9, 48 h
[17] = Mutagenicity in Salmonella typhimurium TA102 assessed as mutagenic index at 50 uM/plate after 48 hrs in presence of S9 fraction by Ames test relative to control; type: toxicity, subcellular; conditions: salmonella enterica subsp. enterica serovar typhimurium, s9, 48 h
Rattus norvegicus [18] = experiment: Antidiabetic activity in STZ-induced diabetic Wistar rat assessed as increase in fasting blood glucose level at 15 mg/kg, po administered for 15 days post STZ challenge measured on day 21 by glucometry; type: functional
Rattus norvegicus [19] = experiment: Antidiabetic activity in STZ-induced diabetic Wistar rat assessed as body weight at 15 mg/kg, po administered on day 7 post STZ challenge measured immediately post dosage (reference value: 319.4 +/- 6.9 g); type: functional
Rattus norvegicus [20] = experiment: Antioxidant activity in STZ-induced diabetic Wistar rat liver assessed as SOD level measured per mg of protein at 15 mg/kg, po administered for 15 days by NBT reduction test (reference value: 0.22 +/- 0.06 microM/min); type: functional
[21] = Mutagenicity in Salmonella typhimurium TA98 assessed as mutagenic index at 34.60 uM/plate after 48 hrs in presence of S9 fraction by Ames test relative to control; type: toxicity, subcellular; conditions: salmonella enterica subsp. enterica serovar typhimurium, s9, 48 h, 34.6 µM
[22] = Mutagenicity in Salmonella typhimurium TA102 assessed as mutagenic index at 17.30 uM/plate after 48 hrs in absence of S9 fraction by Ames test relative to control; type: toxicity; conditions: salmonella enterica subsp. enterica serovar typhimurium, s9, 48 h, 17.3 µM
[23] = Mutagenicity in Salmonella typhimurium TA98 assessed as mutagenic index at 34.60 uM/plate after 48 hrs in absence of S9 fraction by Ames test relative to control; type: toxicity; conditions: salmonella enterica subsp. enterica serovar typhimurium, s9, 48 h, 34.6 µM
[24] = Mutagenicity in Salmonella typhimurium TA98 assessed as mutagenic index at 17.30 uM/plate after 48 hrs in presence of S9 fraction by Ames test relative to control; type: toxicity, subcellular; conditions: salmonella enterica subsp. enterica serovar typhimurium, s9, 48 h, 17.3 µM
Rattus norvegicus [25] = experiment: Antidiabetic activity in STZ-induced diabetic Wistar rat assessed as body weight at 15 mg/kg, po administered for 15 days post STZ challenge measured on day 21 (reference value: 319.4 +/- 6.9 g); type: functional
[26] = Mutagenicity in Salmonella typhimurium TA102 assessed as mutagenic index at 34.60 uM/plate after 48 hrs in presence of S9 fraction by Ames test relative to control; type: toxicity, subcellular; conditions: salmonella enterica subsp. enterica serovar typhimurium, s9, 48 h, 34.6 µM
[27] = Mutagenicity in Salmonella typhimurium TA100 assessed as mutagenic index at 8.65 uM/plate after 48 hrs in presence of S9 fraction by Ames test relative to control; type: toxicity, subcellular; conditions: salmonella enterica subsp. enterica serovar typhimurium, s9, 48 h
[28] = Mutagenicity in Salmonella typhimurium TA100 assessed as mutagenic index at 17.30 uM/plate after 48 hrs in absence of S9 fraction by Ames test relative to control; type: toxicity; conditions: salmonella enterica subsp. enterica serovar typhimurium, s9, 48 h, 17.3 µM
[29] = Mutagenicity in Salmonella typhimurium TA100 assessed as mutagenic index at 34.60 uM/plate after 48 hrs in absence of S9 fraction by Ames test relative to control; type: toxicity; conditions: salmonella enterica subsp. enterica serovar typhimurium, s9, 48 h, 34.6 µM
[30] = Mutagenicity in Salmonella typhimurium TA98 assessed as mutagenic index at 100 uM/plate after 48 hrs in presence of S9 fraction by Ames test relative to control; type: toxicity, subcellular; conditions: salmonella enterica subsp. enterica serovar typhimurium, s9, 48 h
[31] = Mutagenicity in Salmonella typhimurium TA98 assessed as mutagenic index at 50 uM/plate after 48 hrs in presence of S9 fraction by Ames test relative to control; type: toxicity, subcellular; conditions: salmonella enterica subsp. enterica serovar typhimurium, s9, 48 h
Rattus norvegicus [32] = experiment: Antioxidant activity in STZ-induced diabetic Wistar rat liver assessed as glutathione peroxidase level measured as NADPH consumption per mg of protein at 15 mg/kg, po administered for 15 days (reference value: 10 +/- 0.6 microM/min); type: functional
Rattus norvegicus [33] = experiment: Antidiabetic activity in STZ-induced diabetic Wistar rat assessed as increase in beta cells at 15 mg/kg, po administered for 15 days by fluorescence microscopy; type: functional, organism-based
[34] = Genotoxicity in BALB/c mouse blood at 300 mg/kg after 48 hrs by micronucleus assay; type: toxicity, organism-based; conditions: in vivo

Q: With `CC(=O)O[C@@H]1c2c(ccc3ccc(=O)oc23)OC(C)(C)[C@@H]1OC(C)=O` (relative stereo) [QUIANHUCOUMARIN D] as the compound, how does the Ratio [1] read?
A: 1

Q: And the Ratio [2]?
A: 1

Q: And the Ratio [3]?
A: 0.9

Q: And the Activity (Rattus norvegicus [4])?
A: 45.7 g

Q: What about the Activity (Rattus norvegicus [5]) of the same compound?
A: 29.77 mg/dL

Q: And the Activity [6]?
A: 13 g

Q: And the Activity (Rattus norvegicus [7])?
A: 42.04 mg/dL

Q: And the Activity (Rattus norvegicus [8])?
A: 280.7 mg/dL

Q: What about the Ratio [9] of the same compound?
A: 1.4

Q: And the Ratio [10]?
A: 1.3

Q: What about the Ratio [11] of the same compound?
A: 0.8

Q: What about the Ratio [12] of the same compound?
A: 0.7

Q: And the Ratio [13]?
A: 0.7

Q: What about the Activity (Rattus norvegicus [14]) of the same compound?
A: 363.2 mg/dL

Q: What about the Activity (Rattus norvegicus [15]) of the same compound?
A: Active

Q: And the Ratio [16]?
A: 0.8

Q: And the Ratio [17]?
A: 1.2

Q: What about the Activity (Rattus norvegicus [18]) of the same compound?
A: 55.35 mg/dL

Q: What about the Activity (Rattus norvegicus [19]) of the same compound?
A: 335.3 g

Q: What about the Activity (Rattus norvegicus [20]) of the same compound?
A: 0.73 U/min

Q: And the Ratio [21]?
A: 1.2

Q: And the Ratio [22]?
A: 0.7

Q: And the Ratio [23]?
A: 0.8

Q: What about the Ratio [24] of the same compound?
A: 1.2

Q: What about the Activity (Rattus norvegicus [25]) of the same compound?
A: 365.1 g

Q: And the Ratio [26]?
A: 1.4

Q: What about the Ratio [27] of the same compound?
A: 0.9

Q: What about the Ratio [28] of the same compound?
A: 1

Q: And the Ratio [29]?
A: 1

Q: And the Ratio [30]?
A: 1.4

Q: What about the Ratio [31] of the same compound?
A: 1.1

Q: What about the Activity (Rattus norvegicus [32]) of the same compound?
A: 119 µM/min

Q: And the Activity (Rattus norvegicus [33])?
A: Active

Q: What about the Activity [34] of the same compound?
A: Non-Toxic
